Assay type in all cases: biochemical
Test [1] deals with T1, catalytic domain of MMP-13 enzyme (Homo sapiens, UniProt P45452).
T1 construct: stock solution of catalytic domain of MMP-13 enzyme (produced by Alantos or commercially available from Invitek (Berlin), Cat.# 30100812); purchased Invitek (Berlin) 30100812
In words: Assay for determining MMP-13 inhibition (fluorescent substrate). The following applies: Table 1, activity group. On the procedure: The typical assay for MMP-13 activity is carried out in assay buffer comprised of 50 mM Tris, pH 7.5, 150 mM NaCl, 5 mM CaCl2 and 0.05% Brij-35. Different concentrations of tested compounds are prepared in assay buffer in 50 μL aliquots. […] The mixture of enzyme and compound in assay buffer is thoroughly mixed and incubated for 10 min at room temperature. […] The time-dependent increase in fluorescence is measured at the 320 nm excitation and 390 nm emission by automatic plate multireader. The IC50 values are calculated from the initial reaction rates.

Test [2] concerns the target T2, catalytic domain of MMP-3 enzyme (Homo sapiens, UniProt P08254).
T2 construct: stock solution of the catalytic domain of MMP-3 enzyme (Biomol, Cat. No. SE-109); purchased Biomol SE-109
Put plainly: Assay for determining MMP-3 inhibition (NFF-3 fluorescent substrate). The following applies: Table 3, activity group. On the procedure: The typical assay for MMP-3 activity is carried out in assay buffer comprised of 50 mM MES, pH 6.0, 10 mM CaCl2 and 0.05% Brij-35. Different concentrations of tested compounds are prepared in assay buffer in 50 μL aliquots. […] The mixture of enzyme and compound in assay buffer is thoroughly mixed and incubated for 10 min at room temperature. […] The time-dependent increase in fluorescence is measured at the 330 nm excitation and 390 nm emission by an automatic plate multireader. The IC50 values are calculated from the initial reaction rates.

Test [3] has as its target T3, activated MMP-8 enzyme (Homo sapiens, UniProt P22894).
T3 construct: purchased Calbiochem 444229
Put plainly: Assay for determining MMP-8 inhibition (fluorescent substrate). Conditions: Table 2, activity group. On the procedure: The typical assay for MMP-8 activity is carried out in assay buffer comprised of 50 mM Tris, pH 7.5, 150 mM NaCl, 5 mM CaCl2 and 0.05% Brij-35. Different concentrations of tested compounds are prepared in assay buffer in 50 μL aliquots. […] The mixture of enzyme and compound in assay buffer is thoroughly mixed and incubated for 10 min at 37° C. […] The time-dependent increase in fluorescence is measured at the 320 nm excitation and 390 nm emission by an automatic plate multireader at 37° C. The IC50 values are calculated from the initial reaction rates.

Some results are limits rather than exact numbers.

T3 sequence (P22894 101-467): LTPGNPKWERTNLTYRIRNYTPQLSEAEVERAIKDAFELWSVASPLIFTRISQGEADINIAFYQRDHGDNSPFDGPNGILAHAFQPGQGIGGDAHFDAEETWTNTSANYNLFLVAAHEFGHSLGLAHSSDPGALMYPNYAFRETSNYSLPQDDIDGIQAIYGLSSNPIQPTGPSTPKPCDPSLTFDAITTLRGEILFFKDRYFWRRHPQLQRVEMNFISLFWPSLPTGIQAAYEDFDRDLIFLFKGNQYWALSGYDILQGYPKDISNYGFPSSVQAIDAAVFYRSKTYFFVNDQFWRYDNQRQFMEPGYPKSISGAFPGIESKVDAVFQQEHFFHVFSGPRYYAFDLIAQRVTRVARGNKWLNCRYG
T2 sequence (P08254 100-272 limits assumed): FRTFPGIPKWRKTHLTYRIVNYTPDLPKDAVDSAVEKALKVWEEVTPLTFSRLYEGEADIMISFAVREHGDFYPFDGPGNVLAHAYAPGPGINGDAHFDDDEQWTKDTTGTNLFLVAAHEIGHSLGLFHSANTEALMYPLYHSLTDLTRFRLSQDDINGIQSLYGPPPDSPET

Usually IC50 stands for the concentration that gives 50% inhibition. Read a high IC50 as lower potency. On to `COc1ccc2c(c1)CCc1sc3nc(C(=O)NCc4ccc5c(c4)CN(c4c(N)c(=O)c4=O)CC5)[nH]c(=O)c3c1-2` [2/108], for which the IC50 in test [1] was less than 100 nM; in test [2], 250 to 20000 nM.
Turning to `O=C1COc2ccc(CNC(=O)c3nc4sc5c(c4c(=O)[nH]3)CCCCC5)cc2N1` [2/117], the results for the IC50 in test [1] and in test [3] were less than 100 nM and less than 250 nM, respectively.
Regarding `Nc1c(N2CCc3ccc(CNC(=O)c4nc5sc6c(c5c(=O)[nH]4)CCCCC6)cc3C2)c(=O)c1=O` [2/118], the IC50 is less than 100 nM in test [1] and less than 250 nM in test [3].
Take `O=C1COc2ccc(CNC(=O)c3nc4sc5c(c4c(=O)[nH]3)CCS5)cc2N1` [2/121]: the IC50 was less than 100 nM in test [1] and less than 250 nM in test [3].
`Nc1c(N2CCc3ccc(CNC(=O)c4nc5sc6c(c5c(=O)[nH]4)CCS6)cc3C2)c(=O)c1=O` [2/122]: the IC50 in test [1] was less than 100 nM; in test [3] it was less than 250 nM.
`O=C1COc2ccc(CNC(=O)c3nc4sc5c(c4c(=O)[nH]3)CCCCCC5)cc2N1` [2/125]: the IC50 in test [1] was less than 100 nM; in test [3], less than 250 nM.
For `Nc1c(N2CCc3ccc(CNC(=O)c4nc5sc6c(c5c(=O)[nH]4)CCCCCC6)cc3C2)c(=O)c1=O` [2/126] the same measures were less than 100 nM and less than 250 nM.
Regarding `COc1cccc(CNC(=O)c2nc3sc4c(c3c(=O)[nH]2)CCS(=O)(=O)C4)c1` [2/129], the results for the IC50 in test [1] and in test [3] were less than 100 nM and 250 to 20000 nM, respectively.
For `Cc1cc(CNC(=O)c2nc3sc4c(c3c(=O)[nH]2)CCS(=O)(=O)C4)ccc1F` [2/130] the same measures were 100 to 20000 nM and 250 to 20000 nM.
For `CC1SCc2sc3nc(C(=O)NCc4ccc5c(c4)NC(=O)CO5)[nH]c(=O)c3c21` (stereo not drawn) [2/131], the results for the IC50 in test [1] and in test [3] were less than 100 nM and less than 250 nM, respectively.
In the case of `O=C1COc2ccc(CNC(=O)c3nc4sc5c(c4c(=O)[nH]3)CCOC5)cc2N1` [2/152], the values for the IC50 in test [1] and in test [3] were less than 100 nM and less than 250 nM, respectively.
For `Nc1c(N2CCc3ccc(CNC(=O)c4nc5sc6c(c5c(=O)[nH]4)CCOC6)cc3C2)c(=O)c1=O` [2/153] the same measures were less than 100 nM and less than 250 nM.
With `O=C1COc2ccc(CNC(=O)c3nc4sc5c(c4c(=O)[nH]3)C(C(=O)NCc3ccccc3)CC5)cc2N1` (stereo not drawn) [2/167], the IC50 was less than 100 nM in test [1] and less than 250 nM in test [3].
For `COC(=O)c1ccc(CNC(=O)C2CCc3sc4nc(C(=O)NCc5ccc6c(c5)NC(=O)CO6)[nH]c(=O)c4c32)cc1` (stereo not drawn) [2/169], the IC50 in test [1] is less than 100 nM; in test [3], less than 250 nM.
As for `CS(=O)(=O)c1ccc(CNC(=O)C2CCc3sc4nc(C(=O)NCc5ccc6c(c5)NC(=O)CO6)[nH]c(=O)c4c32)cc1` (stereo not drawn) [2/170], the IC50 in test [1] was less than 100 nM; in test [3], less than 250 nM.
As to `CN(C)C(=O)C1CCc2sc3nc(C(=O)NCc4ccc5c(c4)NC(=O)CO5)[nH]c(=O)c3c21` (stereo not drawn) [2/173], the IC50 in test [1] was less than 100 nM; in test [3], 250 to 20000 nM.
For `Cc1ccc(CNC(=O)C2CCc3sc4nc(C(=O)NCc5ccc6c(c5)NC(=O)CO6)[nH]c(=O)c4c32)cc1` (stereo not drawn) [2/174], the half-inhibitory concentration (IC50) in test [1] is less than 100 nM; in test [3] it was less than 250 nM.
Regarding `CC(NC(=O)C1CCc2sc3nc(C(=O)NCc4ccc5c(c4)NC(=O)CO5)[nH]c(=O)c3c21)c1ccccc1` (stereo not drawn) [2/175], the results for the IC50 in test [1] and in test [3] were less than 100 nM and less than 250 nM, respectively.
As to `Cc1cc(CNC(=O)C2CCc3sc4nc(C(=O)NCc5ccc6c(c5)NC(=O)CO6)[nH]c(=O)c4c32)ccc1F` (stereo not drawn) [2/176], the IC50 in test [1] was less than 100 nM; in test [3] it was less than 250 nM.
As for `CCOC(=O)C1CCc2sc3nc(C(=O)NCc4ccc5c(c4)NC(=O)CO5)[nH]c(=O)c3c2C1` (stereo not drawn) [2/208], the IC50 in test [1] was less than 100 nM; in test [2], 250 to 20000 nM.
Regarding `CCOC(=O)C1Cc2sc3nc(C(=O)NCc4ccc5c(c4)NC(=O)CO5)[nH]c(=O)c3c2C1` (stereo not drawn) [2/210], the values for the IC50 in test [1] and in test [2] were less than 100 nM and 250 to 20000 nM, respectively.
In the case of `CC(C)(C)OC(=O)CNC(=O)C1CCc2sc3nc(C(=O)NCc4ccc5c(c4)NC(=O)CO5)[nH]c(=O)c3c21` (stereo not drawn) [2/224], the IC50 in test [1] is less than 100 nM; in test [3] it was less than 250 nM.
Turning to `CC(C)CNC(=O)C1Cc2sc3nc(C(=O)NCc4ccc5c(c4)NC(=O)CO5)[nH]c(=O)c3c2C1` (stereo not drawn) [2/231], the IC50 is less than 100 nM in test [1] and 250 to 20000 nM in test [2].
Compound `NC(=O)C1Cc2sc3nc(C(=O)NCc4ccc5c(c4)CN(c4c(N)c(=O)c4=O)CC5)[nH]c(=O)c3c2C1` (stereo not drawn) [2/232] had a concentration for half-maximal inhibition (IC50) in test [2] of 250 to 20000 nM.
In turn, `CCOC(=O)CC1CCCc2sc3nc(C(=O)NCc4ccc5c(c4)NC(=O)CO5)[nH]c(=O)c3c21` (stereo not drawn) [2/236] registered a 50% inhibitory concentration (IC50) in test [2] of 250 to 20000 nM.
Same read-out and setting: with `NC(=O)CC1CCCc2sc3nc(C(=O)NCc4ccc5c(c4)NC(=O)CO5)[nH]c(=O)c3c21` (stereo not drawn) [2/240] the figure was 250 to 20000 nM.
Regarding `O=C1COc2ccc(CNC(=O)c3nc4ccc5c(c4c(=O)[nH]3)CCC5)cc2N1` [2/245], the IC50 in test [1] was less than 100 nM; in test [2] it was 250 to 20000 nM.
In the case of `C#CCNC(=O)CC1CCCc2sc3nc(C(=O)NCc4ccc5c(c4)NC(=O)CO5)[nH]c(=O)c3c21` (stereo not drawn) [2/251], the concentration for half-maximal inhibition (IC50) is less than 100 nM in test [1] and less than 250 nM in test [3].
For the compound `NC(=O)CNC(=O)C1CCc2sc3nc(C(=O)NCc4ccc5c(c4)NC(=O)CO5)[nH]c(=O)c3c21` (stereo not drawn) [2/255], the IC50 is less than 100 nM in test [1] and less than 250 nM in test [3].
With `NC(=O)C1CCCCc2sc3nc(C(=O)NCc4ccc5c(c4)NC(=O)CO5)[nH]c(=O)c3c21` (stereo not drawn) [2/267], the IC50 in test [1] was less than 100 nM; in test [3], less than 250 nM.
Regarding `O=C(NCc1ccc(F)cc1)c1nc2sc3c(c2c(=O)[nH]1)CCC3` [2/290], the IC50 is less than 100 nM in test [1] and 250 to 20000 nM in test [3].
For `O=C(NCc1cccc(F)c1)c1nc2sc3c(c2c(=O)[nH]1)CCC3` [2/292], the IC50 in test [1] is 100 to 20000 nM; in test [3], 250 to 20000 nM.
On to `Cc1cc(CNC(=O)c2nc3sc4c(c3c(=O)[nH]2)CCC4)ccc1F` [2/313], for which the IC50 in test [1] was less than 100 nM; in test [3], less than 250 nM.
In the case of `COC(=O)c1cccc(CNC(=O)c2nc3sc4c(c3c(=O)[nH]2)CCC4)c1` [2/316], the figures for the IC50 in test [1] and in test [3] were less than 100 nM and 250 to 20000 nM, respectively.
On the same counts, the results for `Cc1cccc(CNC(=O)c2nc3sc4c(c3c(=O)[nH]2)CCC4)c1` [2/383] are 100 to 20000 nM and 250 to 20000 nM.
Consider `COc1ccc(CNC(=O)c2nc3sc4c(c3c(=O)[nH]2)CCC4)cc1` [2/384], for which the figures for the IC50 in test [1] and in test [3] were 100 to 20000 nM and 250 to 20000 nM, respectively.
As to `Nc1c(NCc2cccc(CNC(=O)c3nc4sc5c(c4c(=O)[nH]3)CCC5)c2)c(=O)c1=O` [2/413], the IC50 in test [1] was less than 100 nM; in test [3], less than 250 nM.
On to `Nc1c(NCc2cc(CNC(=O)c3nc4sc5c(c4c(=O)[nH]3)CCC5)ccc2F)c(=O)c1=O` [2/417], for which the IC50 in test [1] is less than 100 nM; in test [3], 250 to 20000 nM.
For the compound `O=C(NCc1ccc2c(c1)OCCO2)c1nc2sc3c(c2c(=O)[nH]1)CCC3` [2/428], the IC50 in test [1] lay within 100 to 20000 nM; in test [3] it was 250 to 20000 nM.
For `O=C(NCc1ccc(F)c(Cl)c1)c1nc2sc3c(c2c(=O)[nH]1)CCC3` [2/433] the same measures were 100 to 20000 nM and 250 to 20000 nM.
For `O=C(NCc1cccc(N2CCSCC2)c1)c1nc2sc3c(c2c(=O)[nH]1)CCC3` [2/528] the same measures were less than 100 nM and 250 to 20000 nM.
Consider `CS(=O)(=O)N1CCc2ccc(CNC(=O)c3nc4sc5c(c4c(=O)[nH]3)CCC5)cc2C1` [2/538], for which the figures for the IC50 in test [1] and in test [3] were 100 to 20000 nM and 250 to 20000 nM, respectively.
Take `Nc1c(N2CCc3ccc(CNC(=O)c4nc5sc6c(c5c(=O)[nH]4)CC(C(=O)O)C6)cc3C2)c(=O)c1=O` (stereo not drawn) [4/14]: the IC50 in test [1] was less than 100 nM; in test [3], less than 250 nM.
For `O=C1COc2ccc(CNC(=O)c3nc4cc5ccccc5cc4c(=O)[nH]3)cc2N1` [39/20] the same measures were 100 to 20000 nM and 250 to 20000 nM.
On the same counts, the results for `O=C1COc2ccc(CNC(=O)c3nc4sc5c(c4c(=O)[nH]3)CCC5)cc2N1` [Example 1] are less than 100 nM and less than 250 nM.
Regarding `NC(=O)C1CCc2sc3nc(C(=O)NCc4ccc5c(c4)NC(=O)CO5)[nH]c(=O)c3c21` (stereo not drawn) [Example 2/166], the IC50 is less than 100 nM in test [1] and less than 250 nM in test [3].
In the case of `O=C1COc2ccc(CNC(=O)c3nc4ccc5c(c4c(=O)[nH]3)OCO5)cc2N1` [Example 28], the figures for the IC50 in test [1] and in test [2] were less than 100 nM and less than 250 nM, respectively.
`O=C1COc2ccc(CNC(=O)c3nc4sc5c(c4c(=O)[nH]3)CNC5)cc2N1` [Example 41]: the IC50 in test [1] was less than 100 nM; in test [3], 250 to 20000 nM.

(Values after patent publication US7749996B2, “Heterotricyclic metalloprotease inhibitors” (Alantos Pharmaceutical Holdings, Inc., priority 2006, dated 2010).)
